Assay results taken from ChEMBL document CHEMBL1201862, “PubChem BioAssay data set” (2004).
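Each compound was tested at five concentrations against cells in 96-well plates for 48 hours. GI50 is the concentration that inhibits growth by half.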 The source made the active and inactive calls. No stated cut-off is given here; in the data, active = GI50 up to about 1.1 µM and inactive = higher.

Legend:
Experiment in all cases: NCI anticancer screen, dose series, 48 h
UACC-62 = tested on: UACC-62
CAKI-1 = tested on: CAKI-1
M14 = tested on: M14
RXF 393 = tested on: RXF 393
K562 = tested on: K562
A549 = tested on: A549
SF-268 = tested on: SF-268
MDA-MB-231 = tested on: MDA-MB-231
TK-10 = tested on: TK-10
HCT-15 = tested on: HCT-15
KM12 = tested on: KM12
DU-145 = tested on: DU-145
MDA-MB-435 = tested on: MDA-MB-435
CCRF-CEM = tested on: CCRF-CEM
T47D = tested on: T47D
HCT-116 = tested on: HCT-116
OVCAR-3 = tested on: OVCAR-3
OVCAR-5 = tested on: OVCAR-5
IGROV-1 = tested on: IGROV-1
Malme-3M = tested on: Malme-3M
BT-549 = tested on: BT-549
SNB-19 = tested on: SNB-19
HT-29 = tested on: HT-29
SK-MEL-2 = tested on: SK-MEL-2
SK-OV-3 = tested on: SK-OV-3
HCC 2998 = tested on: HCC 2998
786-0 = tested on: 786-0
SK-MEL-5 = tested on: SK-MEL-5
HOP-92 = tested on: HOP-92
MOLT-4 = tested on: MOLT-4
SNB-75 = tested on: SNB-75
HOP-62 = tested on: HOP-62
SW-620 = tested on: SW-620
SF-295 = tested on: SF-295
SN12C = tested on: SN12C
ACHN = tested on: ACHN
NCI-H460 = tested on: NCI-H460
NCI-H226 = tested on: NCI-H226
UACC-257 = tested on: UACC-257
OVCAR-8 = tested on: OVCAR-8
NCI/ADR-RES = tested on: NCI/ADR-RES
EKVX = tested on: EKVX
COLO 205 = tested on: COLO 205
HL-60 = tested on: HL-60
U-251 = tested on: U-251
NCI-H23 = tested on: NCI-H23
RPMI-8226 = tested on: RPMI-8226
UO-31 = tested on: UO-31
Hs-578T = tested on: Hs-578T
OVCAR-4 = tested on: OVCAR-4
MDA-N = tested on: MDA-N
A498 = tested on: A498
PC-3 = tested on: PC-3
MCF7 = tested on: MCF7
SK-MEL-28 = tested on: SK-MEL-28
SF-539 = tested on: SF-539
LOX IMVI = tested on: LOX IMVI

COC(=O)[C@H](Cc1ccccc1)NC(=O)c1ccc(CNC(=O)/C=C/c2ccc(-c3ccccc3)cc2)cc1
GI50 (UACC-62): 44.2 µM (inactive) | GI50 (CAKI-1): 65 µM (inactive) | GI50 (M14): 94.6 µM (inactive) | GI50 (RXF 393): 11.1 µM (inactive) | GI50 (K562): 77.1 µM (inactive) | GI50 (A549): > 100 µM (inactive) | GI50 (SF-268): 15.2 µM (inactive) | GI50 (MDA-MB-231): 22.1 µM (inactive) | GI50 (TK-10): 68.1 µM (inactive) | GI50 (HCT-15): > 100 µM | GI50 (KM12): > 100 µM (inactive) | GI50 (DU-145): > 100 µM (inactive) | GI50 (MDA-MB-435): > 100 µM (inactive) | GI50 (CCRF-CEM): 6.62 µM (inactive) | GI50 (T47D): > 100 µM (inactive) | GI50 (HCT-116): 4.95 µM (inactive) | GI50 (OVCAR-3): > 100 µM (inactive) | GI50 (OVCAR-5): 59.4 µM (inactive) | GI50 (IGROV-1): > 100 µM (inactive) | GI50 (Malme-3M): 24.9 µM (inactive) | GI50 (BT-549): 24.9 µM (inactive) | GI50 (SNB-19): 12.6 µM (inactive) | GI50 (HT-29): 3.71 µM (inactive) | GI50 (SK-MEL-2): > 100 µM (inactive) | GI50 (SK-OV-3): 57.8 µM (inactive) | GI50 (HCC 2998): 11.5 µM (inactive) | GI50 (786-0): 3.56 µM (inactive) | GI50 (SK-MEL-5): > 100 µM (inactive) | GI50 (HOP-92): 80.9 µM (inactive) | GI50 (MOLT-4): > 100 µM (inactive) | GI50 (SNB-75): 10.5 µM (inactive) | GI50 (HOP-62): 15.6 µM (inactive) | GI50 (SW-620): > 100 µM (inactive) | GI50 (SF-295): 19.7 µM (inactive) | GI50 (SN12C): > 100 µM (inactive) | GI50 (ACHN): > 100 µM (inactive) | GI50 (NCI-H460): > 100 µM (inactive) | GI50 (NCI-H226): > 100 µM (inactive) | GI50 (UACC-257): > 100 µM (inactive) | GI50 (OVCAR-8): 7.1 µM (inactive) | GI50 (NCI/ADR-RES): 59.8 µM (inactive) | GI50 (EKVX): > 100 µM (inactive) | GI50 (COLO 205): > 100 µM (inactive) | GI50 (HL-60): 25.9 µM (inactive) | GI50 (U-251): 5.97 µM (inactive) | GI50 (NCI-H23): 27.8 µM (inactive) | GI50 (RPMI-8226): > 100 µM (inactive) | GI50 (UO-31): > 100 µM (inactive) | GI50 (Hs-578T): 22.8 µM (inactive) | GI50 (OVCAR-4): > 100 µM (inactive) | GI50 (MDA-N): > 100 µM (inactive) | GI50 (A498): > 100 µM (inactive) | GI50 (PC-3): > 100 µM (inactive) | GI50 (MCF7): > 100 µM (inactive) | GI50 (SK-MEL-28): > 100 µM (inactive)

Cc1cn(Cc2cn(CC3OC(n4cc(C)c(=O)[nH]c4=O)CC3O)nn2)c(=O)[nH]c1=O (configuration not stated)
GI50 (UACC-62): > 100 µM (inactive) | GI50 (CAKI-1): > 100 µM (inactive) | GI50 (M14): > 100 µM (inactive) | GI50 (RXF 393): > 100 µM (inactive) | GI50 (A549): > 100 µM (inactive) | GI50 (SF-268): > 100 µM (inactive) | GI50 (MDA-MB-231): > 100 µM (inactive) | GI50 (TK-10): > 100 µM (inactive) | GI50 (HCT-15): > 100 µM | GI50 (KM12): > 100 µM (inactive) | GI50 (DU-145): > 100 µM (inactive) | GI50 (MDA-MB-435): > 100 µM (inactive) | GI50 (CCRF-CEM): > 100 µM (inactive) | GI50 (T47D): > 100 µM (inactive) | GI50 (HCT-116): > 100 µM (inactive) | GI50 (OVCAR-3): > 100 µM (inactive) | GI50 (OVCAR-5): > 100 µM (inactive) | GI50 (Malme-3M): > 100 µM (inactive) | GI50 (BT-549): > 100 µM (inactive) | GI50 (SNB-19): > 100 µM (inactive) | GI50 (SK-MEL-2): > 100 µM (inactive) | GI50 (SK-OV-3): > 100 µM (inactive) | GI50 (HCC 2998): > 100 µM (inactive) | GI50 (SK-MEL-5): > 100 µM (inactive) | GI50 (MOLT-4): > 100 µM (inactive) | GI50 (SNB-75): > 100 µM (inactive) | GI50 (HOP-62): > 100 µM (inactive) | GI50 (SW-620): > 100 µM (inactive) | GI50 (SF-295): > 100 µM (inactive) | GI50 (SN12C): > 100 µM (inactive) | GI50 (ACHN): > 100 µM (inactive) | GI50 (NCI-H226): > 100 µM (inactive) | GI50 (SF-539): > 100 µM (inactive) | GI50 (UACC-257): > 100 µM (inactive) | GI50 (OVCAR-8): > 100 µM (inactive) | GI50 (NCI/ADR-RES): > 100 µM (inactive) | GI50 (EKVX): > 100 µM (inactive) | GI50 (COLO 205): > 100 µM (inactive) | GI50 (U-251): > 100 µM (inactive) | GI50 (NCI-H23): > 100 µM (inactive) | GI50 (RPMI-8226): > 100 µM (inactive) | GI50 (UO-31): > 100 µM (inactive) | GI50 (Hs-578T): > 100 µM (inactive) | GI50 (OVCAR-4): > 100 µM (inactive) | GI50 (MDA-N): > 100 µM (inactive) | GI50 (A498): > 100 µM (inactive) | GI50 (PC-3): > 100 µM (inactive) | GI50 (MCF7): > 100 µM (inactive) | GI50 (SK-MEL-28): > 100 µM (inactive)

N#Cc1c(N)n(-c2cccc(C(=O)O)c2)c(=O)c2cc([N+](=O)[O-])ccc12
GI50 (UACC-62): > 100 µM (inactive) | GI50 (CAKI-1): > 100 µM (inactive) | GI50 (K562): > 100 µM (inactive) | GI50 (A549): 0.505 µM (active) | GI50 (SF-268): > 100 µM (inactive) | GI50 (MDA-MB-231): > 100 µM (inactive) | GI50 (TK-10): > 100 µM (inactive) | GI50 (HCT-15): > 100 µM | GI50 (KM12): > 100 µM (inactive) | GI50 (DU-145): > 100 µM (inactive) | GI50 (MDA-MB-435): > 100 µM (inactive) | GI50 (T47D): > 100 µM (inactive) | GI50 (HCT-116): > 100 µM (inactive) | GI50 (LOX IMVI): > 100 µM (inactive) | GI50 (BT-549): > 100 µM (inactive) | GI50 (SNB-19): > 100 µM (inactive) | GI50 (HT-29): > 100 µM (inactive) | GI50 (SK-MEL-2): > 100 µM (inactive) | GI50 (HCC 2998): > 100 µM (inactive) | GI50 (786-0): > 100 µM (inactive) | GI50 (SK-MEL-5): > 100 µM (inactive) | GI50 (HOP-92): > 100 µM (inactive) | GI50 (SNB-75): > 100 µM (inactive) | GI50 (SW-620): > 100 µM (inactive) | GI50 (SN12C): > 100 µM (inactive) | GI50 (ACHN): > 100 µM (inactive) | GI50 (NCI-H460): > 100 µM (inactive) | GI50 (NCI-H226): > 100 µM (inactive) | GI50 (UACC-257): > 100 µM (inactive) | GI50 (OVCAR-8): > 100 µM (inactive) | GI50 (NCI/ADR-RES): > 100 µM (inactive) | GI50 (COLO 205): > 100 µM (inactive) | GI50 (HL-60): > 100 µM (inactive) | GI50 (U-251): > 100 µM (inactive) | GI50 (NCI-H23): > 100 µM (inactive) | GI50 (RPMI-8226): > 100 µM (inactive) | GI50 (UO-31): > 100 µM (inactive) | GI50 (Hs-578T): > 100 µM (inactive) | GI50 (OVCAR-4): > 100 µM (inactive) | GI50 (MDA-N): > 100 µM (inactive) | GI50 (A498): > 100 µM (inactive) | GI50 (PC-3): 42 µM (inactive) | GI50 (SK-MEL-28): > 100 µM (inactive)
